Measurements from patent US3974140A, “Ureidoacetamido-penicillins” (Bayer Aktiengesellschaft, priority 1970, dated 1976).

Experiments:
Assay in all cases: MIC, liquid medium test tube series dilution test
[1] = tested on: Proteus vulg. 3400; format: cell-based, Proteus vulgaris; settings: Proteus vulg. 3400, 24 hours, 37°C
Method in brief: (§1)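 In this in vitro test, growth inhibition is judged by absence of turbidity across a dilution series in complete nutrient broth. Readings are made after 24 hours at 37°C, with values given in units/ml.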

[2] = tested on: Proteus vulg. 1017; format: cell-based, Proteus vulgaris; settings: Proteus vulg. 1017, 24 hours, 37°C
Method in brief: as §1

[3] = tested on: Klebsiella K 10; format: cell-based; settings: Klebsiella K 10, 24 hours, 37°C
Method in brief: as §1

[4] = tested on: Streptoc. faec. ATCC 9790; format: cell-based; settings: Strep. faec. (Enterococcus) ATCC 9790, 24 hours, 37°C
Method in brief: as §1

[5] = tested on: Klebsiella 63; format: cell-based; settings: Klebsiella 63, 24 hours, 37°C
Method in brief: as §1

[6] = tested on: E. coli 14; format: cell-based; settings: E. coli 14, 24 hours, 37°C
Method in brief: as §1

[7] = tested on: E. coli C 165; format: cell-based; settings: E. coli C 165, 24 hours, 37°C
Method in brief: as §1

[8] = tested on: E. coli A 261; format: cell-based; settings: E. coli A 261, 24 hours, 37°C
Method in brief: as §1

[9] = tested on: E. coli 183/58; format: cell-based; settings: E. coli 183/58, 24 hours, 37°C
Method in brief: as §1

[10] = tested on: Staph. aureus 1777 E; format: cell-based, Staphylococcus aureus; settings: 24 hours, 37°C
Method in brief: as §1

[11] = tested on: Staph. aureus 133; format: cell-based, Staphylococcus aureus; settings: Staph. aureus 133, 24 hours, 37°C
Method in brief: as §1

[12] = tested on: Psdm. aerug. Walter; format: cell-based, Pseudomonas aerug.; settings: 24 hours, 37°C
Method in brief: as §1

[13] = tested on: Psdm. aerug. Bonn; format: cell-based, Pseudomonas aerug.; settings: 24 hours, 37°C
Method in brief: as §1

| SMILES | MIC [1] | MIC [2] | MIC [3] | MIC [4] | MIC [5] | MIC [6] | MIC [7] | MIC [8] | MIC [9] | MIC [10] | MIC [11] | MIC [12] | MIC [13] | also measured |
| --- | --- | --- | --- | --- | --- | --- | --- | --- | --- | --- | --- | --- | --- | --- |
| CCCCOC(=O)N(C)C(=O)N[C@@H](C(=O)N[C@@H]1C(=O)N2[C@@H]1SC(C)(C)[C@@H]2C(=O)O)c1ccccc1 [Example 12, Sodium D(-)-α-(3-n-butoxycarbonyl-3-methyl-ureido)-benzylpenicillin] | 100 units/ml | 100 units/ml | 50 units/ml | 200 units/ml | 100 units/ml | 6.3 units/ml | 50 units/ml | > 400 units/ml | 12.5 units/ml | 400 units/ml | 1.6 units/ml | 200 units/ml | 400 units/ml | – |
| Cc1ccc(C(NC(=O)N2CCNC2=O)C(=O)N[C@@H]2C(=O)N3[C@@H]2SC(C)(C)[C@@H]3C(=O)O)cc1 (stereo partly drawn) [Example 45, Sodium α-[(imidazolidin-2-on-1-yl)-carbonylamino]-p-methylbenzylpenicillin] | 100 units/ml | 100 units/ml | 100 units/ml | 50 units/ml | 100 units/ml | 6,25 units/ml | 25 units/ml | > 400 units/ml | 6,25 units/ml | 400 units/ml | < 0,78 units/ml | 12,5 units/ml | 25 units/ml | – |
| CN(C(=O)N[C@@H](C(=O)N[C@@H]1C(=O)N2[C@@H]1SC(C)(C)[C@@H]2C(=O)O)c1ccccc1)C(=O)c1cccc(Cl)c1 [Example 117, Sodium D(-)-α-(3-m-chlorobenzoyl-3-methyl-ureido)-benzylpenicillin] | 3.12 units/ml | 3.12 units/ml | 6.25 units/ml | 50 units/ml | 12.5 units/ml | < 0.78 units/ml | 1.56 units/ml | 50 units/ml | 1.56 units/ml | 12.5 units/ml | 0.8 units/ml | 12.5 units/ml | 12.5 units/ml | – |
| COC(=O)N(C)C(=O)N[C@H](C(=O)N[C@@H]1C(=O)N2[C@@H]1SC(C)(C)[C@@H]2C(=O)O)c1c(Cl)cccc1Cl [Example 8, Sodium L(+)-α-(3-methoxycarbonyl-3-methyl-ureido)-2,6-dichlorobenzylpenicillin] | > 500 units/ml | > 500 units/ml | > 500 units/ml | > 500 units/ml | > 500 units/ml | > 500 units/ml | > 500 units/ml | > 500 units/ml | > 500 units/ml | 100-500 units/ml | 4-20 units/ml | > 500 units/ml | > 500 units/ml | – |
| CNC(=O)N(C)C(=O)N[C@@H](C(=O)N[C@@H]1C(=O)N2[C@@H]1SC(C)(C)[C@@H]2C(=O)O)c1ccccc1 [Example 110, Sodium D(-)-α-(3-methylaminocarbonyl-3-methyl-ureido)-benzylpenicillin] | 4-20 units/ml | 4-20 units/ml | 4-20 units/ml | 4-20 units/ml | 4-20 units/ml | 0.8-4 units/ml | 4-20 units/ml | 100-500 units/ml | 4-20 units/ml | 20-100 units/ml | 0.8 units/ml | 20-100 units/ml | 20-100 units/ml | – |

Second part, led by results:

| MIC [1] | MIC [2] | MIC [3] | MIC [4] | MIC [5] | MIC [6] | MIC [7] | MIC [8] | MIC [9] | MIC [10] | MIC [11] | MIC [12] | MIC [13] | SMILES | also measured |
| --- | --- | --- | --- | --- | --- | --- | --- | --- | --- | --- | --- | --- | --- | --- |
| 0.8-4 units/ml | 0.8-4 units/ml | 4-20 units/ml | 4-20 units/ml | 4-20 units/ml | < 0.8 units/ml | 0.8-4 units/ml | 20-100 units/ml | < 0.8 units/ml | 20-100 units/ml | 0.8 units/ml | 4-20 units/ml | 4- 20 units/ml | CN(C(=O)N[C@@H](C(=O)N[C@@H]1C(=O)N2[C@@H]1SC(C)(C)[C@@H]2C(=O)O)c1ccccc1)C(=O)c1ccc(Cl)cc1 [Example 112, Sodium D(-)-α-(3-p-chlorebenzoyl-3-methyl-ureido)-benzylpenicillin] | – |
| 0.8-4 units/ml | 0.8-4 units/ml | 0.8-4 units/ml | 4-20 units/ml | 4-20 units/ml | 0.8 units/ml | < 0.8 units/ml | 20-100 units/ml | < 0.8 units/ml | 20-100 units/ml | < 0.8 units/ml | 0.8-4 units/ml | 0.8-4 units/ml | CN(C(=O)C=Cc1cccc([N+](=O)[O-])c1)C(=O)N[C@@H](C(=O)N[C@@H]1C(=O)N2[C@@H]1SC(C)(C)[C@@H]2C(=O)O)c1ccccc1 [Example 131, Sodium D(-)-α-(3-m-nitrocinnamoyl-3-methyl-ureido)-benzylpenicillin] | – |
| 0.8-4 units/ml | 4-20 units/ml | 4-20 units/ml | 4-20 units/ml | 20-100 units/ml | 0.8 units/ml | 0.8-4 units/ml | > 400 units/ml | < 0.8 units/ml | 20-100 units/ml | < 0.8 units/ml | 4-20 units/ml | 4-20 units/ml | CN(C(=O)Cc1ccc([N+](=O)[O-])cc1)C(=O)N[C@@H](C(=O)N[C@@H]1C(=O)N2[C@@H]1SC(C)(C)[C@@H]2C(=O)O)c1ccccc1 [Example 132, Sodium D(-)-α-(3-[4-nitrophenacetyl]-3-methyl-ureido)-benzylpenicillin] | – |
| 100 units/ml | 50 units/ml | 50 units/ml | 200 units/ml | 100 units/ml | 3.12 units/ml | 25 units/ml | > 400 units/ml | 12.5 units/ml | 25 units/ml | < 0.8 units/ml | 100 units/ml | 50 units/ml | CN(C(=O)N[C@@H](C(=O)N[C@@H]1C(=O)N2[C@@H]1SC(C)(C)[C@@H]2C(=O)O)c1ccccc1)C(=O)N1CCCCC1 [Example 123, Sodium D(-)-α-(3-[1-piperidyl]-carbonyl-3-methyl-ureido)-benzylpenicillin] | – |
| – | – | – | – | – | – | – | > 400 units/ml | – | 400 units/ml | – | – | – | COC(=O)N(C)C(=O)N[C@@H](C(=O)N[C@@H]1C(=O)N2[C@@H]1SC(C)(C)[C@@H]2C(=O)O)c1ccccc1 [Example 10 B] | MIC ([1]; listed as 10 B): 200 units/ml; MIC ([2]; listed as 10 B): 200 units/ml; MIC ([3]; listed as 10 B): 50 units/ml; MIC ([3]; listed as (A) of Example 10): 200 units/ml; MIC ([4]; listed as 10 B): 100 units/ml; MIC ([5]; listed as 10 B): 50 units/ml; MIC ([5]; listed as (A) of Example 10): 200 units/ml; MIC ([6]; listed as 10 B): 12.5 units/ml; MIC ([6]; listed as (A) of Example 10): 12.5 units/ml; MIC ([7]; listed as 10 B): 50 units/ml; MIC ([9]; listed as 10 B): 50 units/ml; MIC ([9]; listed as (A) of Example 10): 50 units/ml; MIC ([11]; listed as 10 B): 1.6 units/ml; MIC ([11]; listed as (A) of Example 10): 1.56 units/ml; MIC ([12]; listed as 10 B): 200 units/ml; MIC ([12]; listed as (A) of Example 10): 50 units/ml; MIC ([13]; listed as 10 B): 200 units/ml; MIC ([13]; listed as (A) of Example 10): 50 units/ml |
| 100 units/ml | 25 units/ml | 50 units/ml | 50 units/ml | 50 units/ml | 6.25 units/ml | 25 units/ml | 200 units/ml | 12.5 units/ml | 12.5 units/ml | < 0.8 units/ml | 100 units/ml | 25 units/ml | CCN(C(=O)N[C@@H](C(=O)N[C@@H]1C(=O)N2[C@@H]1SC(C)(C)[C@@H]2C(=O)O)c1ccccc1)C(=O)c1ccccc1Cl [Example 138, Sodium D(-)-α-(3-o-chlorobenzoyl-3-ethyl-ureido)-benzylpenicillin] | – |
